# Where “and” joins values, the source holds several entries; their conditions need not be identical. Equal values may be shown once. Residues, ends and D or L forms follow the SMILES beside them.
# Assays:
# E. coli DPC6053 [1] = experiment: 96-well plate assay (OD600), MIC; type: cell-based, Escherichia coli; conditions: for minimum inhibitory concentration (MIC): E. coli DPC6053, 6 h at 37° C., OD600
# Procedure: (§1) Preliminary characterisation of the antibacterial activity of peptides and fractions synthesised involved measurement of growth inhibition in a 96-well plate assay (1, 10) and utilisation of an agar diffusion method (16,39). […] A control without bacteria (sterility control) was also included. The plates were incubated for 6 h at 37° C. and culture growth monitored hourly. Minimum inhibitory concentrations (MIC's) were taken as the lowest concentration without visible growth, measured by recording the OD600, in a micro-titre plate reader. A well diffusion assay (16, 40) was used to detect antibacterial activity of purified and chemically synthesised peptides. These assays were performed in either Brain Heart Infusion (BHI), Luria Bertani (LB) or Nutrient agar (NA) seeded with 1 ml of an overnight culture of the indicator strains E. coli DPC6053, L. innocua DPC3306, E. sakazakii 5920 (ATCC12868) or E. sakazakii 8272 (NCTC8155) respectively. Wells, 4.6 mm in diameter, were cut into these agar plates, and 30 μl (0.162 mg/ml) of the peptide fraction placed in each well. Plates were stored at 4° C. for 4 h to permit radial diffusion of the peptide, incubated at 30° C. anaerobically or 37° C. aerobically for 24 h, and examined for zones of inhibition. The sensitivity of a strain to the peptides was scored according to the diameter of the zone of inhibition surrounding the well. The experiments were performed in triplicate and mean zone size calculated.
# E. coli DPC6053 [2] = experiment: agar well diffusion assay, E. coli DPC6053; type: cell-based, Escherichia coli JM109; set-up: key to zone of inhibition (inhibitory spectrum): +++: Zone of inhibition >2.0 cm in diameter produced.; ++: Zone of inhibition >1.5 cm in diameter produced.; +: Zone of inhibition >1.0 cm in diameter produced.; −: No zone detected; conditions: for zone of inhibition (inhibitory spectrum): Escherichia coli JM109 DPC6053, pure synthesised peptide; for concentration at which the indicator organism was inhibited: agar well-diffusion assay
# Procedure: as §1
# E. coli O157:H7 DPC6054 = experiment: agar well diffusion assay, E. coli O157:H7 DPC6054; type: cell-based, Escherichia coli; set-up: key to zone of inhibition (inhibitory spectrum): +++: Zone of inhibition >2.0 cm in diameter produced.; ++: Zone of inhibition >1.5 cm in diameter produced.; +: Zone of inhibition >1.0 cm in diameter produced.; −: No zone detected; conditions: for zone of inhibition (inhibitory spectrum): E. coli O157:H7 DPC6054, pure synthesised peptide
# E. coli O157:H7 DPC6055 = experiment: agar well diffusion assay, E. coli O157:H7 DPC6055; type: cell-based, Escherichia coli; set-up: key to zone of inhibition (inhibitory spectrum): +++: Zone of inhibition >2.0 cm in diameter produced.; ++: Zone of inhibition >1.5 cm in diameter produced.; +: Zone of inhibition >1.0 cm in diameter produced.; −: No zone detected; conditions: for zone of inhibition (inhibitory spectrum): E. coli O157:H7 DPC6055, pure synthesised peptide
# [3] = test system: E. sakazakii 5920 (ATCC12868); experiment: agar well diffusion assay, E. sakazakii 5920; type: cell-based, Enterobacter sakazakii; set-up: key to zone of inhibition (inhibitory spectrum): +++: Zone of inhibition >2.0 cm in diameter produced.; ++: Zone of inhibition >1.5 cm in diameter produced.; +: Zone of inhibition >1.0 cm in diameter produced.; −: No zone detected; conditions: for zone of inhibition (inhibitory spectrum): Enterobacter sakazakii ATCC12868 DPC6090, pure synthesised peptide
# Procedure: as §1
# [4] = test system: E. sakazakii 8272 (NCTC8155); experiment: agar well diffusion assay, E. sakazakii 8272; type: cell-based, Enterobacter sakazakii; set-up: key to zone of inhibition (inhibitory spectrum): +++: Zone of inhibition >2.0 cm in diameter produced.; ++: Zone of inhibition >1.5 cm in diameter produced.; +: Zone of inhibition >1.0 cm in diameter produced.; −: No zone detected; conditions: for zone of inhibition (inhibitory spectrum): E. sakazakii NCTC8155 DPC6091, pure synthesised peptide
# Procedure: as §1
# L. innocua DPC3306 = experiment: agar well diffusion assay, L. innocua DPC3306; type: cell-based; conditions: Listeria innocua DPC3306; for zone of inhibition (inhibitory spectrum): pure synthesised peptide
# Procedure: as §1
# [5] = test system: Staphylococcus aureus DPC5246; experiment: agar well diffusion assay, S. aureus DPC5246; type: cell-based; set-up: key: +++: Zone of inhibition >2.0 cm in diameter produced.; ++: Zone of inhibition >1.5 cm in diameter produced.; +: Zone of inhibition >1.0 cm in diameter produced.; −: No zone detected; conditions: pure synthesised peptide
# [6] = test system: Lactobacillus bulgaricus ATCC11842 DPC5383; experiment: agar well diffusion assay, L. bulgaricus DPC5383; type: cell-based; set-up: key: +++: Zone of inhibition >2.0 cm in diameter produced.; ++: Zone of inhibition >1.5 cm in diameter produced.; +: Zone of inhibition >1.0 cm in diameter produced.; −: No zone detected; conditions: pure synthesised peptide
# [7] = test system: Streptococcus mutans DPC4069; experiment: agar well diffusion assay, S. mutans DPC4069; type: cell-based; set-up: key: +++: Zone of inhibition >2.0 cm in diameter produced.; ++: Zone of inhibition >1.5 cm in diameter produced.; +: Zone of inhibition >1.0 cm in diameter produced.; −: No zone detected; conditions: pure synthesised peptide
# E. coli DPC6053 [8] = experiment: susceptibility to proteinase K, agar well diffusion assay; type: cell-based, Escherichia coli; conditions: proteinase K 2050 U/ml, 1:1 volume ratio, 4° C., 6 h
# Procedure: Plates were incubated at 37° C. for 24 h. The positive controls used were the peptides isracidin (Peptide Protein Research Ltd.) and Cecropin P1 (Sigma TM).
# [9] = test system: lactobacilli and other Gram-positive bacteria; conditions: Floris et al. 2003; cited from earlier work
# [10] = test system: S. aureus, Streptococcus pyogenes and L. monocytogenes; conditions: doses as low as; cited from earlier work
Molecule,zone of inhibition (inhibitory spectrum) (E. coli DPC6053 [2]),concentration at which the indicator organism was inhibited (E. coli DPC6053 [2]; E. coli DPC6053),zone of inhibition (inhibitory spectrum) (E. coli O157:H7 DPC6054),zone of inhibition (inhibitory spectrum) (E. coli O157:H7 DPC6055),zone of inhibition (inhibitory spectrum) [3],zone of inhibition (inhibitory spectrum) [4],zone of inhibition (inhibitory spectrum) (L. innocua DPC3306),zone of inhibition (inhibitory spectrum) [5],zone of inhibition (inhibitory spectrum) [6],zone of inhibition (inhibitory spectrum) [7],minimum inhibitory concentration (MIC) (E. coli DPC6053 [1]),antimicrobial activity after treatment with proteinase K (E. coli DPC6053 [8]),other results
CC[C@H](C)[C@H](NC(=O)CNC(=O)[C@H](CCC(=O)O)NC(=O)[C@H](CO)NC(=O)[C@@H](NC(=O)[C@H](CCCNC(=N)N)NC(=O)[C@H](CCCCN)NC(=O)[C@H](CCCCN)NC(=O)[C@H](C)NC(=O)[C@H](CO)NC(=O)[C@H](CC(N)=O)NC(=O)[C@H](CCC(=O)O)NC(=O)[C@H](CC(C)C)NC(=O)[C@H](CCCCN)NC(=O)[C@H](CCCCN)NC(=O)[C@H](C)NC(=O)[C@@H](NC(=O)[C@H](CCCCN)NC(=O)[C@H](CO)NC(=O)[C@H](CC(C)C)NC(=O)[C@H](Cc1c[nH]c2ccccc12)NC(=O)[C@@H](N)CO)[C@@H](C)O)[C@@H](C)CC)C(=O)N[C@@H](C)C(=O)N[C@H](C(=O)N[C@@H](C)C(=O)N[C@H](C(=O)N[C@@H](CCC(N)=O)C(=O)NCC(=O)NCC(=O)N1CCC[C@H]1C(=O)N[C@@H](CCCNC(=N)N)C(=O)O)[C@@H](C)CC)[C@@H](C)CC [Cecropin P1] (H-SWLSKTAKKLENSAKKRISEGIAIAIQGGPR-OH),,,,,,,,,,,,,MIC of commercially available control peptides (E. coli DPC6053 [1]; strain not given): 50 µM
CC[C@H](C)[C@H](N)C(=O)N[C@@H](CCCCN)C(=O)N[C@@H](Cc1c[nH]cn1)C(=O)N[C@@H](CCC(N)=O)C(=O)NCC(=O)N[C@@H](CC(C)C)C(=O)N1CCC[C@H]1C(=O)N[C@@H](CCC(N)=O)C(=O)N[C@@H](CCC(=O)O)C(=O)O [SEQ ID NO: 1] (H-IKHQGLPQE-OH; N-terminus and C-terminus assumed),+++ (Zone of inhibition >2.0 cm in diameter produced.),0.05 mM,+++ (Zone of inhibition >2.0 cm in diameter produced.),+++ (Zone of inhibition >2.0 cm in diameter produced.),+++ (Zone of inhibition >2.0 cm in diameter produced.),+++ (Zone of inhibition >2.0 cm in diameter produced.),++ (Zone of inhibition >1.5 cm in diameter produced.),−,+++ (Zone of inhibition >2.0 cm in diameter produced.),++ (Zone of inhibition >1.5 cm in diameter produced.),78 µM,lose their antibacterial activity,"concentration at which inhibition was shown (E. coli O157:H7 DPC6054; agar well-diffusion assay, E. coli DPC6054 (O157:H7 derivative)): 0.05 mM; concentration at which inhibition was shown (E. coli O157:H7 DPC6055; agar well-diffusion assay, E. coli DPC6055 (O157:H7 derivative)): 0.05 mM; concentration at which inhibition was shown ([3]; agar well-diffusion assay, E. sakazakii 5920 (ATCC12868)): 0.05 mM"
CC(C)C[C@H](NC(=O)[C@H](CC(C)C)NC(=O)[C@H](CC(N)=O)NC(=O)[C@H](CCC(=O)O)NC(=O)[C@H](CC(N)=O)NC(=O)[C@H](CC(C)C)NC(=O)[C@@H](N)C(C)C)C(=O)N[C@@H](CCCNC(=N)N)C(=O)O [SEQ ID NO: 3] (H-VLNENLLR-OH; N-terminus and C-terminus assumed),+++ (Zone of inhibition >2.0 cm in diameter produced.),0.22 mM,+++ (Zone of inhibition >2.0 cm in diameter produced.),+++ (Zone of inhibition >2.0 cm in diameter produced.),+++ (Zone of inhibition >2.0 cm in diameter produced.),+++ (Zone of inhibition >2.0 cm in diameter produced.),++ (Zone of inhibition >1.5 cm in diameter produced.),−,+++ (Zone of inhibition >2.0 cm in diameter produced.),++ (Zone of inhibition >1.5 cm in diameter produced.),220 µM,lose their antibacterial activity,"concentration at which inhibition was shown ([4]; agar well-diffusion assay, E. sakazakii DPC6091): 0.22 mM"
"CC[C@H](C)[C@H](NC(=O)[C@@H]1CCCN1C(=O)[C@H](Cc1cnc[nH]1)NC(=O)[C@H](CCCCN)NC(=O)[C@@H]1CCCN1C(=O)[C@@H](N)CCCNC(=N)N)C(=O)N[C@@H](CCCCN)C(=O)N[C@@H](Cc1cnc[nH]1)C(=O)N[C@@H](CCC(N)=O)C(=O)NCC(=O)N[C@@H](CC(C)C)C(=O)N1CCC[C@H]1C(=O)N[C@@H](CCC(N)=O)C(=O)N[C@@H](CCC(=O)O)C(=O)N[C@H](C(=O)N[C@@H](CC(C)C)C(=O)N[C@@H](CC(N)=O)C(=O)N[C@@H](CCC(=O)O)C(=O)N[C@@H](CC(N)=O)C(=O)N[C@@H](CC(C)C)C(=O)N[C@@H](CC(C)C)C(=O)N[C@@H](CCCNC(=N)N)C(=O)N[C@@H](Cc1ccccc1)C(=O)O)C(C)C [isracidin, Isracidin] (H-RPKHPIKHQGLPQEVLNENLLRF-OH)",,,,,,,,,,,50 µM and 59 µM,,concentration inhibiting in vitro growth [9]: 0.1 to 1 mg/mL; dose with strong protective effect [10]: 10 μg per mouse
"SDIPNPIGSENSEK (Strain DPC6026; listed as Lactobacillus acidophilus) [SEQ ID NO: 2, peptide of bovine αs1-casein f(183-207), found in fraction A1-49, chemically synthesised]",−,,−,−,−,−,+ (Zone of inhibition >1.0 cm in diameter produced.),−,−,−,,lose their antibacterial activity,"inhibitory / antimicrobial activity (in words) (E. coli DPC6053 [2]; E. coli DPC6053, crude fermentates: 96-well plate assay or well diffusion assay): no activity; inhibitory / antimicrobial activity (in words) (L. innocua DPC3306; crude fermentates: 96-well plate assay or well diffusion assay): some inhibitory activity"
